In paper PMC6406179 (F1000Research, 2018):
Where no end group is shown, it is not given here.

Tests used:
[1] = biological target: T1, Mannheimia haemolytica leukotoxin (Lkt) (Mannheimia haemolytica, UniProt P16535); assay: cell-based
[2] = biological target: T1, Mannheimia haemolytica leukotoxin (Lkt)
[3] = IC50, concentration of peptide needed to block 50% of Lkt-induced cytolysis of BL3 cells

## MLRQRPQLLLLAGLLALQSVLS [R3R5]
[1]; IC50 (μM)
  IC50: 12.7 ± 0.6 µM
[1]; [3]
  IC50: 17.9 µM

## RPQLLLLAG [(A) 5-13]
[1]; IC50 (μM)
  IC50: 75 ± 11.3 µM

## RPQLLFLSGLLAL [Sheep R5F10S12]
[1]; IC50 (uM) aa 5-17
  IC50: 16.1 ± 1 µM

## MLHQRPQLLLLAGLLALQSVLS [H3R5]
[1]; [3]
  IC50: 21.6 µM

## CPQLLLLAG [(B) 5-13]
[1]; IC50 (μM)
  IC50: 27.8 ± 2 µM

## QCPQVLLLAGLLGL [Eland Q4C5V8G16]
[1]; IC50 (uM) aa 4-17
  IC50: 1.6 ± 0.1 µM

## CPQLLLL [(B) 5-11]
[1]; IC50 (μM)
  IC50: 56.2 ± 5 µM

## RPQLLLLAGL [(A) 5-14]
[1]; IC50 (μM)
  IC50: 23.1 ± 1.3 µM

## RPQLLLL [(A) 5-11]
[1]; IC50 (μM)
  IC50: 64.8 ± 7.4 µM

## RPQLLLLAGLL [(A) 5-15]
[1]; IC50 (μM)
  IC50: 26.4 ± 1.7 µM

## CPQLLLLAGLLAL [C5]
[2]
  fold better at blocking Lkt-induced cytotoxicity compared to the 13-mer R5 peptide: 8 fold
[1]; IC50 (μM)
  IC50: 1.5 ± 0.1 µM

## MLRQCPQLLLLAGLLALQSVLS [R3C5]
[1]; IC50 (μM)
  IC50: 6.8 ± 0.5 µM
[1]; [3]
  IC50: 5.9 µM

## RPQLLLLAGLLSL [Water Buffalo R5S16]
[1]; IC50 (uM) aa 5-17
  IC50: 13.9 ± 1 µM

## RPQLLLLAGLLAL [R5]
[1]; IC50 (uM) aa 5-17
  IC50: 12.1 ± 0.6 µM
[1]; IC50 (μM)
  IC50: 13.7 ± 0.6 µM

## RCPQVLLLAGLLGL [Eland R4C5V8G16]
[1]; IC50 (uM) aa 4-17
  IC50: 33.3 ± 1.3 µM

## RPQLLLLAGLLA [(A) 5-16]
[1]; IC50 (μM)
  IC50: 18 ± 0.8 µM

## CPQLLLLA [(B) 5-12]
[1]; IC50 (μM)
  IC50: 51.5 ± 5.7 µM

## RPQLLLLA [(A) 5-12]
[1]; IC50 (μM)
  IC50: 81.8 ± 13.6 µM

## RCPQLLLLAGLLAL [Cattle R4C5]
[1]; IC50 (uM) aa 4-17
  IC50: 14.5 ± 0.6 µM

## CPQLLLLAGL [(B) 5-14]
[1]; IC50 (μM)
  IC50: 6.7 ± 0.5 µM

## QCPQLLLLAGLLAL [Cattle Q4C5]
[1]; IC50 (uM) aa 4-17
  IC50: 2.6 ± 0.1 µM

## CPQVLLLAGLLGL [Eland C5V8G16]
[1]; IC50 (uM) aa 5-17
  IC50: 0.5 ± 0.1 µM

## CPQLLLLAGLLA [(B) 5-16]
[1]; IC50 (μM)
  IC50: 0.6 ± 0.1 µM

## CPQLLLLAGLL [(B) 5-15]
[1]; IC50 (μM)
  IC50: 2.8 ± 0.2 µM
